Data published in patent US9029325B2, “Amylin analogues and pharmaceutical compositions thereof” (Novo Nordisk A/S, priority 2011, dated 2015).
Starred links: 1 amine or outer side, 2 acyl side, 3 side chain; linkers in the order of their positions; H or OH if unused. Positions of bridges follow the written chain, without caps; N, C: chain ends. Residues, ends and D or L forms follow the SMILES beside them. *: point of attachment. C20 diacid = O=C(O)CCCCCCCCCCCCCCCCCCC(=O)*; γGlu = O=C(O)[C@H](CCC(=O)[*:2])N[*:1]

Test: Assay (III) ThT fibrillation assay for physical stability
Type: physicochemical
Conditions: for Th T pH 4.0 lag time (h): 37° C., orbital shaking 960 rpm; for ThT pH 4.0 lag time: Table 9
Source text: Low physical stability of a polypeptide may lead to amyloid fibril formation, which is observed as well-ordered, thread-like macromolecular structures in the sample eventually resulting in gel formation. This has traditionally been measured by visual inspection of the sample. However, that kind of measurement is very subjective and depending on the observer. Therefore, the application of a small molecule indicator probe is much more advantageous. Thioflavin T (ThT) is such a probe and has a distinct fluorescence signature when binding to fibrils [Naiki et al. (1989) Anal. Biochem. 177, 244-249; LeVine (1999) Methods. Enzymol. […], 274-284].
The time course for fibril formation can be described by a sigmoidal curve with the following expression [Nielsen et al. (2001) Biochemistry 40, 6036-6046]:
[formula] Here, F is the ThT fluorescence at the time t. The constant t0 is the time needed to reach 50% of maximum fluorescence. The two important parameters describing fibril formation are the lag-time calculated by t0−2T and the apparent rate constant kapp=1/τ.
Few of those intermediates nucleate to form a template onto which further intermediates may assembly and the fibrillation proceeds. The lag-time corresponds to the interval in which the critical mass of nucleus is built up and the apparent rate constant is the rate with which the fibril itself is formed.
Samples were prepared freshly before each assay. Each sample composition is described in each example. The pH of the sample was adjusted to the desired value using appropriate amounts of concentrated NaOH and HClO4 or HCl. Thioflavin T was added to the samples from a stock solution in H2O to a final concentration of 1 μM.
Sample aliquots of 200 μl were placed in a 96 well microtiter plate (Packard OptiPlate™-96, white polystyrene). Usually, four or eight replica of each sample (corresponding to one test condition) were placed in one column of wells. The plate was sealed with Scotch Pad (Qiagen).
Incubation at given temperature, shaking and measurement of the ThT fluorescence emission were done in a Fluoroskan Ascent FL fluorescence platereader or Varioskan platereader (Thermo Labsystems). The temperature was adjusted to 37° C. The orbital shaking was adjusted to 960 rpm with an amplitude of 1 mm in all the presented data. Fluorescence measurement was done using excitation through a 444 nm filter and measurement of emission through a 485 nm filter.
Each run was initiated by incubating the plate at the assay temperature for 10 min. The plate was measured every 20 minutes for a desired period of time. Between each measurement, the plate was shaken and heated as described.
The measurement points were saved in Microsoft Excel format for further processing and curve drawing and fitting was performed using GraphPad Prism. The background emission from ThT in the absence of fibrils was negligible. The data points are typically a mean of four or eight samples and shown with standard deviation error bars. Only data obtained in the same experiment (i.e. samples on the same plate) are presented in the same graph ensuring a relative measure of fibrillation […].
The data set may be fitted to Eq. (1). However, since full sigmodial curves in this case are not always achieved during the measurement time, the degree of fibrillation is expressed as ThT fluorescence tabulated as the mean of the samples and shown with the standard deviation at various time points.
The polypeptide concentration in each of the tested formulations were measured both before application in the ThT fibrillation assay (“Initial”) and after completion of the ThT fibrillation (“After ThT assay”). Concentrations were determined by reverse HPLC methods using a pramlintide standard as a reference. Before measurement after completion 150 μl was collected from each of the replica and transferred to an Eppendorf tube. These were centrifuged at 30000 G for 40 mins. […]

SMILES	Th T pH 4.0 lag time (h)	ThT pH 4.0 lag time
CC[C@H](C)[C@H](NC(=O)[C@@H]1CCCN1C(=O)CNC(=O)[C@H](Cc1ccccc1)NC(=O)[C@H](CC(N)=O)NC(=O)[C@H](CC(N)=O)NC(=O)[C@H](CO)NC(=O)[C@H](CO)NC(=O)[C@H](Cc1c[nH]cn1)NC(=O)[C@H](Cc1c[nH]cn1)NC(=O)[C@H](CC(C)C)NC(=O)[C@H](Cc1ccccc1)NC(=O)[C@H](CCC(=O)O)NC(=O)[C@H](C)NC(=O)[C@H](CC(C)C)NC(=O)[C@H](CCCNC(=N)N)NC(=O)[C@H](CCC(N)=O)NC(=O)[C@@H](NC(=O)[C@H](C)NC(=O)[C@@H]1CSSC[C@H](NC(=O)CNC(=O)CC[C@H](NC(=O)CCCCCCCCCCCCCCCCCCC(=O)O)C(=O)O)C(=O)N[C@@H](CC(N)=O)C(=O)N[C@@H]([C@@H](C)O)C(=O)N[C@@H](C)C(=O)N[C@@H]([C@@H](C)O)C(=O)N1)[C@@H](C)O)C(=O)N[C@@H](CC(C)C)C(=O)N1CCC[C@H]1C(=O)N1CCC[C@H]1C(=O)N[C@H](C(=O)N[C@@H](CC(N)=O)C(=O)N[C@H](C(=O)NCC(=O)N[C@@H](CO)C(=O)N[C@@H](CC(N)=O)C(=O)N[C@H](C(=O)N1CCC[C@H]1C(N)=O)[C@@H](C)O)C(C)C)[C@@H](C)O [Example 91, N-alpha-[(S)-4-Carboxy-4-(19-carboxynonadecanoylamino)butyryl]-[Gly1, Glu14, His17, Pro37]-pramlintide] ({C20 diacid-γGlu}-GCNTATCATQRLAEFLHHSSNNFGPILPPTNVGSNTP-NH2; disulfide 2-7)	29 h	
CC[C@H](C)[C@H](NC(=O)[C@@H]1CCCN1C(=O)CNC(=O)[C@H](Cc1ccccc1)NC(=O)[C@H](CC(N)=O)NC(=O)[C@H](CC(N)=O)NC(=O)[C@H](CO)NC(=O)[C@H](CO)NC(=O)[C@H](Cc1c[nH]cn1)NC(=O)[C@H](CCCNC(=N)N)NC(=O)[C@H](CC(C)C)NC(=O)[C@H](Cc1ccccc1)NC(=O)[C@H](CCC(=O)O)NC(=O)[C@H](C)NC(=O)[C@H](CC(C)C)NC(=O)[C@H](CCCNC(=N)N)NC(=O)[C@H](CCC(N)=O)NC(=O)[C@@H](NC(=O)[C@H](C)NC(=O)[C@@H]1CSSC[C@H](NC(=O)[C@H](CCC(=O)O)NC(=O)[C@H](CCCNC(=N)N)NC(=O)[C@H](CCC(=O)O)NC(=O)CC[C@H](NC(=O)CCCCCCCCCCCCCCCCCCC(=O)O)C(=O)O)C(=O)N[C@@H](CC(N)=O)C(=O)N[C@@H]([C@@H](C)O)C(=O)N[C@@H](C)C(=O)N[C@@H]([C@@H](C)O)C(=O)N1)[C@@H](C)O)C(=O)N[C@@H](CC(C)C)C(=O)N1CCC[C@H]1C(=O)N1CCC[C@H]1C(=O)N[C@H](C(=O)N[C@@H](CC(N)=O)C(=O)N[C@H](C(=O)NCC(=O)N[C@@H](CO)C(=O)N[C@@H](CC(N)=O)C(=O)N[C@H](C(=O)N1CCC[C@H]1C(N)=O)[C@@H](C)O)C(C)C)[C@@H](C)O [Example 124, N-alpha-[(S)-4-Carboxy-4-(19-carboxynonadecanoylamino)butyryl]-Glu-Arg-[Glu1, Glu14, Arg17, Pro37]-pramlintide] ({C20 diacid-γGlu}-ERECNTATCATQRLAEFLRHSSNNFGPILPPTNVGSNTP-NH2; disulfide 4-9)	>45 h	>45 hr
CC[C@H](C)[C@H](NC(=O)[C@@H]1CCCN1C(=O)CNC(=O)[C@H](Cc1ccccc1)NC(=O)[C@H](CC(N)=O)NC(=O)[C@H](CCC(N)=O)NC(=O)[C@H](CO)NC(=O)[C@H](CO)NC(=O)[C@H](Cc1c[nH]cn1)NC(=O)[C@H](Cc1c[nH]cn1)NC(=O)[C@H](CC(C)C)NC(=O)[C@H](Cc1ccccc1)NC(=O)[C@H](CCC(=O)O)NC(=O)[C@H](C)NC(=O)[C@H](CC(C)C)NC(=O)[C@H](CCCNC(=N)N)NC(=O)[C@H](CCC(N)=O)NC(=O)[C@@H](NC(=O)[C@H](C)NC(=O)[C@@H]1CSSC[C@H](NC(=O)[C@H](CCCCN)NC(=O)CC[C@H](NC(=O)CCCCCCCCCCCCCCCCCCC(=O)O)C(=O)O)C(=O)N[C@@H](CC(N)=O)C(=O)N[C@@H]([C@@H](C)O)C(=O)N[C@@H](C)C(=O)N[C@@H]([C@@H](C)O)C(=O)N1)[C@@H](C)O)C(=O)N[C@@H](CC(C)C)C(=O)N1CCC[C@H]1C(=O)N1CCC[C@H]1C(=O)N[C@H](C(=O)N[C@@H](CC(N)=O)C(=O)N[C@H](C(=O)NCC(=O)N[C@@H](CO)C(=O)N[C@@H](CCC(N)=O)C(=O)N[C@H](C(=O)N1CCC[C@H]1C(N)=O)[C@@H](C)O)C(C)C)[C@@H](C)O [Example 136, N-alpha-[(S)-4-Carboxy-4-(19-carboxynonadecanoylamino)butyryl]-[Glu14, His17, Gln21, Gln35, Pro37]-pramlintide] ({C20 diacid-γGlu}-KCNTATCATQRLAEFLHHSSQNFGPILPPTNVGSQTP-NH2; disulfide 2-7)	>45 h	>45 hr

Other lines, results leading:

Th T pH 4.0 lag time (h)	ThT pH 4.0 lag time	SMILES
>45 h	>45 hr	CC[C@H](C)[C@H](NC(=O)[C@@H]1CCCN1C(=O)CNC(=O)[C@H](Cc1ccccc1)NC(=O)[C@H](CC(N)=O)NC(=O)[C@H](CCC(N)=O)NC(=O)[C@H](CO)NC(=O)[C@H](CO)NC(=O)[C@H](Cc1c[nH]cn1)NC(=O)[C@H](Cc1c[nH]cn1)NC(=O)[C@H](CC(C)C)NC(=O)[C@H](Cc1ccccc1)NC(=O)[C@H](CCC(=O)O)NC(=O)[C@H](C)NC(=O)[C@H](CC(C)C)NC(=O)[C@H](CCCNC(=N)N)NC(=O)[C@H](CCC(N)=O)NC(=O)[C@@H](NC(=O)[C@H](C)NC(=O)[C@@H]1CSSC[C@H](NC(=O)[C@H](CCCCN)NC(=O)CC[C@H](NC(=O)CCCCCCCCCCCCCCCCCCC(=O)O)C(=O)O)C(=O)N[C@@H](CC(N)=O)C(=O)N[C@@H]([C@@H](C)O)C(=O)N[C@@H](C)C(=O)N[C@@H]([C@@H](C)O)C(=O)N1)[C@@H](C)O)C(=O)N[C@@H](CC(C)C)C(=O)N1CCC[C@H]1C(=O)N1CCC[C@H]1C(=O)N[C@H](C(=O)N[C@@H](CC(N)=O)C(=O)N[C@H](C(=O)NCC(=O)N[C@@H](CO)C(=O)N[C@@H](CC(N)=O)C(=O)N[C@H](C(=O)N1CCC[C@H]1C(N)=O)[C@@H](C)O)C(C)C)[C@@H](C)O [Example 130, N-alpha-[(S)-4-Carboxy-4-(19-carboxynonadecanoylamino)butyryl]-[Glu14, His17, Gln21, Pro37]-pramlintide] ({C20 diacid-γGlu}-KCNTATCATQRLAEFLHHSSQNFGPILPPTNVGSNTP-NH2; disulfide 2-7 (inferred); C-terminus assumed)
>45 h	>45 hr	CC[C@H](C)[C@H](NC(=O)[C@@H]1CCCN1C(=O)CNC(=O)[C@H](Cc1ccccc1)NC(=O)[C@H](CC(N)=O)NC(=O)[C@H](CC(N)=O)NC(=O)[C@H](CO)NC(=O)[C@H](CO)NC(=O)[C@H](Cc1c[nH]cn1)NC(=O)[C@H](Cc1c[nH]cn1)NC(=O)[C@H](CC(C)C)NC(=O)[C@H](Cc1ccccc1)NC(=O)[C@H](CCC(=O)O)NC(=O)[C@H](C)NC(=O)[C@H](CC(C)C)NC(=O)[C@H](CCCNC(=N)N)NC(=O)[C@H](CCC(N)=O)NC(=O)[C@@H](NC(=O)[C@H](C)NC(=O)[C@@H]1CSSC[C@H](NC(=O)[C@H](CCCCN)NC(=O)CC[C@H](NC(=O)CCCCCCCCCCCCCCCCCCC(=O)O)C(=O)O)C(=O)N[C@@H](CC(N)=O)C(=O)N[C@@H]([C@@H](C)O)C(=O)N[C@@H](C)C(=O)N[C@@H]([C@@H](C)O)C(=O)N1)[C@@H](C)O)C(=O)N[C@@H](CC(C)C)C(=O)N1CCC[C@H]1C(=O)N1CCC[C@H]1C(=O)N[C@H](C(=O)N[C@@H](CC(N)=O)C(=O)N[C@H](C(=O)NCC(=O)N[C@@H](CO)C(=O)N[C@@H](CCC(N)=O)C(=O)N[C@H](C(=O)N1CCC[C@H]1C(N)=O)[C@@H](C)O)C(C)C)[C@@H](C)O [Example 135, N-alpha-[(S)-4-Carboxy-4-(19-carboxynonadecanoylamino)butyryl]-[Glu14, His17, Gln35, Pro37]-pramlintide] ({C20 diacid-γGlu}-KCNTATCATQRLAEFLHHSSNNFGPILPPTNVGSQTP-NH2; disulfide 2-7)
